Experimental data: patent publication US11738031B2, “Compositions and methods for preventing or treating muscle conditions” (The Board of Trustees of the Leland Stanford Junior …, priority 2017, dated 2023)

Legend:
[1] = tested on: gastrocnemius (GA) muscle; assay: In vivo muscle force after downhill treadmill run, aged mice, gastrocnemius; design: species or system mouse
Protocol: In vivo muscle force measurement: Aged mice (18 mo.) were subjected to downhill treadmill run for 2 consecutive weeks. During week 1, mice ran daily for 5 days and rested on days 6 and 7. […] During week 2, mice were subjected to 5 days treadmill run only. The treadmill run was performed using the Exer3/6 (Columbus Instruments). Mice ran for 10 minutes on the treadmill at 20 degrees downhill, starting at a speed of 7 meters/min. After 3 min, the speed was increased by 1 meter/min to a final speed of 14 meter/min. […] Force measurements were on the GA muscles at week 5 based on a protocol published previously^5. Briefly, for each mouse, an incision was made to expose the GA. We severed the calcaneus bone with intact achilles tendon and attached the tendon-bone complex to a 300C-LR force transducer (Aurora Scientific) with a thin metal hook. The muscles and tendons were kept moist by periodic wetting with saline (0.9% sodium chloride) solution. The lower limb was immobilized below the knee by a metal clamp without compromising the blood supply to the leg. The mouse was under inhaled anesthetic (2% isofluorane) during the entire force measuring procedure and body temperature was maintained by a heat lamp. […] Data were collected with a PCI-6251 acquisition card (National Instruments) and analyzed in Matlab. We calculated specific force values by normalizing the force measurements by the muscle physiological cross-sectional areas (PCSAs), which were similar between the control and the experimental PGE2 treated group (Table 2). PCSA (measured in mm^2) was calculated according to the following equation^12: PCSA (mm^2)=[mass (g)×Cos θ]÷[ρ (g/mm^3)×fiber length (mm)], where θ is pennation angle of the fiber and ρ is muscle density (0.001056 g/mm^3). […]
The muscle force and synchronization pulses were recorded via a PCI-6251 acquisition card (National Instruments) and analyzed using Matlab. FIGS. 5O-5P show the specific muscle force values that were calculated by normalizing the force measurements with the muscle physiological cross-sectional area. […]

[2] = tested on: tibialis anterior (TA) muscle; assay: Cardiotoxin muscle injury, TA histology (PAX7, myofiber cross-sectional area); format: in vivo, mouse; conditions: for effect on endogenous MuSCs in the absence of injury: no tissue damage; for increase in endogenous PAX7-expressing MuSCs / distribution of myofiber cross-sectional area: young mice; for increase in endogenous PAX7-expressing MuSCs: bolus three days after injury, fourteen days post injury; for distribution of myofiber cross-sectional area: day 14 post-cardiotoxin injury
Protocol: Muscle injury: We used an injury model entailing intramuscular injection of 10 μl of notexin (10 μg ml^−1; Latoxan) or cardiotoxin (10 μM; Latoxan) into the TA muscle. For cryoinjury, an incision was made in the skin overlying the TA muscle and a copper probe, chilled in liquid nitrogen, was applied to the TA muscle for three 10 s intervals, allowing the muscle to thaw between each application of the cryoprobe. When indicated, 48 hr after injury either 16,16-Dimethyl Prostaglandin E2 (dmPGE2) (13 nmol, Tocris, catalog #4027) or vehicle control (PBS) was injected into the TA muscle. The contralateral TA was used as an internal control. We collected tissues 14 days post-injury for analysis.
Tissue histology: We collected and prepared recipient TA muscle tissues for histology as previously described^5,6. We incubated transverse sections with anti-LAMININ (Millipore, clone A5, catalog #05-206, 1:200), and anti-PAX7 (Santa Cruz Biotechnology, catalog #sc-81648, 1:50) primary antibodies and then with AlexaFluor secondary Antibodies (Jackson ImmunoResearch Laboratories, 1:200). We counterstained nuclei with DAPI (Invitrogen). We acquired images with an AxioPlan2 epifluorescent microscope (Carl Zeiss Microimaging) with Plan NeoFluar 10×/0.30 NA or 20×/0.75 NA objectives (Carl Zeiss) and an ORCA-ER digital camera (Hamamatsu Photonics) controlled by the SlideBook (3i) software. The images were cropped using Adobe Photoshop with consistent contrast adjustments across all images from the same experiment. The image composites were generated using Adobe Illustrator. We analyzed the number of PAX7 positive cells using the MetaMorph Image Analysis software (Molecular Devices), and the fiber area using the Baxter Algorithms for Myofiber Analysis that identified the fibers and segmented the fibers in the image to analyze the area of each fiber. For PAX7 quantification we examined serial sections spanning a depth of at least 2 mm of the TA. For fiber area at least 10 fields of LAMININ-stained myofiber cross-sections encompassing over 400 myofibers were captured for each mouse as above. Data analyses were blinded. The researchers performing the imaging acquisition and scoring were unaware of treatment condition given to sample groups analyzed.
We used an injury model entailing intramuscular injection of 10 μl of notexin (10 μg ml^−1; Latoxan, catalog #L8104) or cardiotoxin (10 μM; Latoxan, catalog #L8102) into the Tibialis anterior (TA) muscle. For cryoinjury, an incision was made in the skin overlying the TA muscle and a copper probe, chilled in liquid nitrogen, was applied to the TA muscle for three 10 s intervals, allowing the muscle to thaw between each application of the cryoprobe. When indicated, 48 hr after injury either 16,16-Dimethyl Prostaglandin E2 (dmPGE2) (13 nmol, Tocris, catalog #4027), Indomethacin (35 μg, Sigma, catalog #17378) or vehicle control (PBS) was injected into the TA muscle. The contralateral TA was used as an internal control, except for the force measurement experiments where each mouse had both legs injured with the same condition and independent mice were used for each condition.
We collected and prepared recipient TA muscle tissues for histology as previously described (26, 27). For mouse injury assays we incubated transverse sections with Rabbit polyclonal anti-PGE2 (abcam, Catalog #ab2318, 1:100) Rat polyclonal anti-Laminin (Clone A5) (EMD Millipore, Catalog #05-206, 1:200), Mouse monoclonal anti-Pax7 (Santa Cruz, Catalog #sc-81648, 1:50), AlexaFluor 647-conjugated wheat germ agglutinin (WGA) antibody (W32466, Thermo Fisher Scientific), Rabbit polyclonal anti-GFP (A11122, Thermo Fisher Scientific, 1:500) and Mouse monoclonal anti-Embryonic Myosin Heavy Chain (DSHB, Catalog #F1.652, 1:10) primary antibodies and then with AlexaFluor secondary Antibodies (Jackson ImmunoResearch Laboratories, 1:500). We counterstained nuclei with DAPI (Invitrogen). […]

[3] = 13 nM dmPGE2 daily for 5 days after downhill treadmill run, force at week 5

Structure (SMILES)	specific twitch force of gastrocnemius muscles (Example 2) ([1]; treadmill to exhaustion daily for 10 days, 3 nM PGE2 after each run, force 4 weeks after last run)	muscle mass of treated TA ([2]; day 14 post-injury)	effect on endogenous MuSCs in the absence of injury [2]	increase in endogenous PAX7-expressing MuSCs [2] [%]	distribution of myofiber cross-sectional area [2]	specific tetanic force of gastrocnemius [1, 3]	specific twitch force of gastrocnemius [1, 3]	myofiber sizes ([2]; aged mice, fourteen days post-injury)	increase in the number of endogenous MuSCs ([2]; aged mice, single dmPGE2 injection, fourteen days post-injury) [%]
CCCCC[C@H](O)/C=C/[C@H]1[C@H](O)CC(=O)[C@@H]1C/C=C\CCCC(=O)O [PGE2, prostaglandin E2]	increase in specific twitch force	did not increase	no difference from vehicle-injected controls	65±7	striking shift in the distribution of myofibers from smaller toward larger sizes				
CCCCC(C)(C)[C@H](O)/C=C/[C@H]1[C@H](O)CC(=O)[C@@H]1C/C=C\CCCC(=O)O [dmPGE2, 16,16-dimethyl prostaglandin E2]			no effect	60±15	shifted toward larger sizes	significantly increased	significantly increased	concomitant increase in myofiber sizes	24±2
